In experiment [1] the test system is ischemia-induced ST segment elevation. In words: Ischemia-induced ST segment elevation in anesthetized rabbits. In kind it is in vivo, rabbit. The conditions noted are these: iv infusion, 0.9 uM concentration. The procedure: This study was undertaken to determine the anti-ischemic effects of compounds of the present disclosure in an in vivo rabbit model.
Female New Zealand rabbits (3.0-4.0 kg) were purchased from Western Oregon Rabbitry. Animals were housed on a 12-h light and dark cycle and received standard laboratory chow and water. All experiments were performed in accordance with the Guide for the Care and Use of Laboratory Animals published by The National Research Council and with the experimental protocol approved by the Institutional Animal Care Committee of Gilead Sciences, Inc.
Rabbits were anesthetized with ketamine (35 mg/kg) and xylazine (5 mg/kg) intramuscular injection (im). A tracheotomy was performed and the trachea was intubated with an endotracheal tube. […]
Reference electrodes were placed in the open incision of the neck. The body temperature of the animal was monitored via a rectal thermometer and maintained at 37-40° C. by adjusting the surface temperature of the surgical table. […] The ischemic area was visualized by perfusing the heart with 1% Evans blue in saline and calculated as a percentage of total ventricular weight. […]

The subject of a further experiment is hNaV1.3 (SCN3A). In words: Voltage-dependent inhibition of the NaV1.3 sodium channel. In kind it is cell-based, human. The following applies: voltage-dependent block at 1 uM. The procedure:
HEK-293 cells stably expressing wild-type (WT) hNaV1.3 (SCN3A NCBI # NP_001075, SCN1B NCBI # NM_001037.4, SCN2B NCBI # NM_004588.2) were used to record INa. Cells are maintained with standard tissue culture procedures and stable channel expression is maintained with 800 ug/mL G418 and 3 ug/mL Puromycin in the culture medium. Unless otherwise noted, all reagents are purchased from Sigma-Aldrich (St Louis, Mo., U.S.A.).
Assays measuring Voltage-Dependent Block (VDB) of NaV1.3 are performed on an automated electrophysiology platform, QPatch 16X or QPatch HT (Sophion Bioscience, Copenhagen, Denmark), using the whole cell patch clamp technique to measure currents through the cell membrane. Series resistance compensation is set to 100% and series resistance and whole-cell compensation are performed automatically. Currents stored in the Sophion Bioscience Oracle database (Sophion Bioscience, Copenhagen, Denmark). Analysis is performed using QPatch Assay software and data are compiled in Excel 2010 (Microsoft, Seattle, Wash., U.S.A.).
The internal (pipette) solution consists of (in mM) 105 CsF, 10 NaF, 20 CsCl, 2 EGTA, 10 HEPES, 10 Dextrose with a pH of 7.35 and osmolarity of 300 mOsmol/kg. The external (bath) solution contains in (mM): 80 NaCl, 60 Choline-Cl, 4 KCl, 1.8 CaCl2, 1 MgCl2, 10 dextrose, 10 HEPES, with a pH of 7.35 and osmolarity of 310 mOsmol/kg. Experiments are carried out at 23-25° C.
Compound stocks are routinely made by the Gilead Sample Bank in vials to 10 mM in dimethyl sulfoxide (DMSO). In some cases, when compounds are not soluble in DMSO, they are made in 100% ethanol. […] Cells are allowed to stabilize for 10 min after establishment of the whole-cell configuration before current is measured. […]
Voltage-dependent block of NaV1.3 peak current was measured during a voltage step to 0 mV (20 ms) following a voltage step pre-conditioning steps (−55 mV for 10 sec followed by −120 mV for 10 ms). […] The voltage protocol for VDB was performed every 45 seconds in the absence and presence of compound and percentage inhibition was calculated with respect to the compound free condition.

As to `COc1cc(OC(F)(F)F)ccc1-c1ccc2c(c1)CN(Cc1ncccn1)C(=O)O2` [Example 1, 6-(2-methoxy-4-(trifluoromethoxy)phenyl)-3-(pyrimidin-2-ylmethyl)-3,4-dihydro-2H-benzo[e][1,3]oxazin-2-one], in experiment [1], the “inhibition in the rabbit ST segment elevation assay” value stood at 58%.

In the case of `Cc1cc(-c2ccc3c(c2)CN(Cc2ncccn2)C(=O)O3)ccc1OC(F)(F)F` [Example 5, 6-(3-methyl-4-(trifluoromethoxy)phenyl)-3-(pyrimidin-2-ylmethyl)-3,4-dihydro-2H-benzo[e][1,3]oxazin-2-one], in the experiment with hNaV1.3 (SCN3A), the “NaV1.3 VDB % inhibition at 1 uM” value is 31%.

Consider `O=C1Oc2ccc(-c3ccc(OC(F)(F)F)cc3F)cc2CN1Cc1ncccn1` [Example 7, 6-(2-fluoro-4-(trifluoromethoxy)phenyl)-3-(pyrimidin-2-ylmethyl)-3,4-dihydro-2H-benzo[e][1,3]oxazin-2-one], for which the “NaV1.3 VDB % inhibition at 1 uM” value with hNaV1.3 (SCN3A) is 32%.

Turning to `Cc1cc(OC(F)(F)F)ccc1-c1ccc2c(c1)CN(Cc1ncccn1)C(=O)O2` [Example 8, 6-(2-methyl-4-(trifluoromethoxy)phenyl)-3-(pyrimidin-2-ylmethyl)-3,4-dihydro-2H-benzo[e][1,3]oxazin-2-one], the “NaV1.3 VDB % inhibition at 1 uM” value in the experiment with hNaV1.3 (SCN3A) stood at 13.8%.
